Numbered stars: 1 amine (or outer) side, 2 acyl side, 3 side chain; on linkers, the order of the positions; unused ones are H or OH. Bridge positions count the residues as written; N and C are the ends. Square brackets hold non-standard residues; d marks the D form. Peptide text beside a SMILES is read from it. * marks the point of attachment. Octanoyl(6-Me) = CCC(C)CCCCC(=O)*; NH(2-ClPh) = Clc1ccccc1N*; Dab = NCC[CH](N)C(=O)O; CO = O=C([*:1])[*:2]
Columns and labels:
[1] = test system: Acinetobacter baumannii 1570; test: MIC, broth microdilution; assay type: cell-based; details: for MIC against A. baumannii #1570: Table 8, range of repeated tests
Procedure: (§1) MIC testing was performed according to Clinical and Laboratory Standards Institute (CLSI) M7-A7 (2006) broth microdilution methods. Unless otherwise indicated, MIC values are provided in units of micrograms per milliliter.
(§2) One day prior to testing, individual colonies were isolated by streaking onto rich, non-selective Tryptic Soy agar with 5% lysed sheeps blood (TSAB) with incubation at 35-37° C. for 18-24 hours.
(§3) Cultures were prepared by touching 3-5 colonies into 3 mL of Cation adjusted Mueller Hinton Broth (caMHB) in a 14 mL tube (CaMHB was prepared and sterilized according to manufacturer's specifications). Cultures were grown at 37° C. 200 rpm for approximately four hours prior to density adjustment for addition to the MIC assay.
(§4) OD600 of growing cultures was measured and adjusted to approximately 10^5 colony forming units per mL (CFU/mL) in caMHB for MIC inoculation (approximately OD600 0.001).
(§5) Diluted cultures were used to inoculate 50 μL per well in broth microdilution assays (final volume 100 μl per well; compounds were prepared in two-fold dilutions).
(§6) Plates were incubated 16-20 hrs at 37° C., with shaking at 200 rpm.
(§7) OD600 was determined for all wells. Growth was defined as OD600>0.1. MICs were defined as the lowest concentration producing no visible turbidity (OD600<0.1).
(§8) A. baumannii #1570 were grown in cation adjusted Mueller Hinton Broth (caMHB) (catalog #B12322; Fisher Scientific, Pittsburgh, Pa.) at 37° C. MIC testing was performed according to Clinical and Laboratory Standards Institute [CLSI, formerly National Committee for Clinical Laboratory Standards (NCCLS), Wayne, Pa.] guidelines for broth microdilution.
(§9) MIC testing was performed according to CLSI (formerly NCCLS) guidelines for broth microdilution.

K. pneumonia = test: MIC90, broth microdilution, panel of Gram negative clinical isolates; assay type: cell-based, Klebsiella pneumoniae; details: 81 strains; some strains multi-drug resistant
Procedure: (§10) To evaluate the potency and spectrum of compounds of Formula (I), (i.e., Compounds designated 5 and 6), a study was conducted that put together a panel of 455 Gram negative strains, which included multi-drug resistant clinical isolates selected from various surveillance programs. Table 3A lists the strains that were included in the study and the activity of Compound 5, Compound 6, and colistin (polymyxin E, abbreviated PME). Strains with acquired resistance to colistin and/or carbapenems and/or broad spectrum cephalosporins were pre-selected and included in all organism groups evaluated.
as §1, §2, §3, §4, §5, §6, §7

[2] = Pharmacokinetics/toxicokinetics in repeat-dose studies; assay type: in vivo, cynomolgus monkey
Procedure: Monkeys were dosed twice or three times daily for seven days with control article (0.9% Sodium Chloride for Injection, USP), 25000 IU/kg Compound 5, 37500 IU/kg Compound 5, or 37500 IU/kg PMB (Alpharma, lot number A1411079). Each administration was given via a targeted 30-minute intravenous infusion.
The following parameters were evaluated: daily clinical observations and qualitative food consumption, body weight (twice prior to the first dosing and at necropsy), urinalysis, hematology, coagulation, serum chemistry, toxicokinetics, gross pathology, organ weights, and histopathology of the kidneys and injection sites, and of the liver and sciatic nerves of control and high dose groups. Animals were evaluated through Study Day 7 and then terminated.
At higher dose levels, a slightly greater than dose-proportional response was evident in systemic exposure (AUC) and peak plasma concentrations (Cmax). The decrease in clearance at these higher doses may explain the non-linear systemic exposure to Compound 5.

S. maltophilia = test: MIC90, broth microdilution, panel of Gram negative clinical isolates; assay type: cell-based, Stenotrophomonas maltophilia; details: 25 strains
Procedure: as §10, §1, §2, §3, §4, §5, §6, §7

P. aeruginosa = test: as above; assay type: cell-based, Pseudomonas aeruginosa; details: 100 strains
Procedure: as §10, §1, §2, §3, §4, §5, §6, §7

P. aeruginosa #44 = test: MIC, broth microdilution; assay type: cell-based, Pseudomonas aeruginosa; details: for MIC against P. aeruginosa #44: Table 5, range of repeated tests
Procedure: as §1, §2, §3, §4, §5, §6, §7
as §8, with “P. aeruginosa #44 or K. pneumoniae #21” for “A. baumannii #1570”
as §9

CC(C)C[C@@H]1NC(=O)[C@@H](Cc2ccccc2)NC(=O)[C@H](CCN)NC(=O)[C@@H](NC(=O)[C@H](CCN)NC(=O)[C@@H](NC(=O)[C@H](CCN)NC(=O)Nc2ccccc2Cl)[C@@H](C)O)CCNC(=O)[C@H]([C@@H](C)O)NC(=O)[C@H](CCN)NC(=O)[C@H](CCN)NC1=O [Compound 5, (S)-4-amino-N-((2S,3R)-1-((S)-4-amino-1-oxo-1-((3S,6S,9S,12S,15R,18S,21S)-6,9,18-tris(2-aminoethyl)-15-benzyl-3-((R)-1-hydroxyethyl)-12-isobutyl-2,5,8,11,14,17,20-heptaoxo-1,4,7,10,13,16,19-heptaazacyclotricosan-21-ylamino)butan-2-ylamino)-3-hydroxy-1-oxobutan-2-yl)-2-(3-(2-chlorophenyl)ureido)butanamide] ({NH(2-ClPh)-CO}-[Dab]T[Dab][Dab][Dab][dF]L[Dab][Dab]T; lactam 4-C)
MIC Acinetobacter baumannii 1570 ([1]; Table 3B): 4 micrograms/mL
MIC against A. baumannii #1570 [1]: 2-4 micrograms/ml
MIC90 K. pneumonia (K. pneumonia): 4 micrograms/mL
volume of distribution ([2]; all species): greater than blood volume
clearance (CL) ([2]; cynomolgus monkey, in vivo): less than hepatic blood flow
MIC90 S. maltophilia (S. maltophilia): >16 micrograms/mL
MIC90 P. aeruginosa (P. aeruginosa): 2 micrograms/mL
fraction unbound (Serum protein binding): ~0.7
MIC P. aeruginosa 44 (P. aeruginosa #44; Table 3B): 1 micrograms/mL
MIC against P. aeruginosa #44 (P. aeruginosa #44): 1-2 micrograms/ml

CCC(C)CCCCC(=O)NC(CCN)C(=O)NC(C(=O)NC(CCN)C(=O)NC1CCNC(=O)C(C(C)O)NC(=O)C(CCN)NC(=O)C(CCN)NC(=O)C(CC(C)C)NC(=O)C(Cc2ccccc2)NC(=O)C(CCN)NC1=O)C(C)O (centres unmarked) [Polymyxin B, polymyxin B, reference compound] ({Octanoyl(6-Me)}-[Dab]T[Dab][Dab][Dab]FL[Dab][Dab]T; lactam 4-C; configuration not given here)
MIC against A. baumannii #1570 [1]: 1-2 micrograms/ml
MIC90 K. pneumonia (K. pneumonia): 2 micrograms/mL
maximal plasma concentrations (Cmax) relative to Compound 5 ([2]; greater, Day 1, 37,500 IU/kg): approximately 2 fold
systemic exposure (AUC) relative to Compound 5 ([2]; greater, same activity-normalized dose): 2.5 fold
systemic clearance relative to Compound 5 ([2]; less, Day 1): 2 to 3 fold
volume of distribution relative to Compound 5 ([2]; lower): approximately 2 fold
MIC90 S. maltophilia (S. maltophilia): 8 micrograms/mL
MIC90 P. aeruginosa (P. aeruginosa): 2 micrograms/mL
fraction unbound (Serum protein binding): ~0.44
MIC against P. aeruginosa #44 (P. aeruginosa #44): 1-2 micrograms/ml
